Measured values reported in ChEMBL document CHEMBL4229563, “Identification of the First PPARα/γ Dual Agonist Able To Bind to Canonical and Alternative Sites of PPARγ and To Inhibit Its Cdk5-Mediated Phosphorylation” (J Med Chem, 2018).
Each block holds one compound with its values, some of them ahead of it. Activity calls are given as the source filed them. No cut-off for these calls is given here.

Tests used:
[1] = target: T1, Peroxisome proliferator-activated receptor alpha (Homo sapiens, UniProt Q07869); experiment: Transactivation of GAL4-tagged human PPARalpha LBD expressed in human HepG2 cells after 20 hrs by luciferase reporter gene assay; type: cell-based
T1 sequence (Q07869 whole entry): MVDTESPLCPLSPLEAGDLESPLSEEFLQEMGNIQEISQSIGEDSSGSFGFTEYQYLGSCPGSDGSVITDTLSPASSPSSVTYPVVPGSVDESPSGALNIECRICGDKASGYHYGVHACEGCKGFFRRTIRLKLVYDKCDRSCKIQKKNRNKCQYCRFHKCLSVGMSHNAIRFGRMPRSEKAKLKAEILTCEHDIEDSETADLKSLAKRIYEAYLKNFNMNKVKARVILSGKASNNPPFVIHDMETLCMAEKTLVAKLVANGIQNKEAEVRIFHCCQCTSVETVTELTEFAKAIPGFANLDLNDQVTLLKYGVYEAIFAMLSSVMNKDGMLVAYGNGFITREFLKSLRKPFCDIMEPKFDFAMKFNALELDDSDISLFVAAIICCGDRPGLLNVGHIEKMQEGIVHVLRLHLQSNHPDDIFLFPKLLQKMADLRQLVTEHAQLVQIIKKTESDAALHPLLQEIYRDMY

[2] = target: T2, Peroxisome proliferator-activated receptor gamma (Homo sapiens, UniProt P37231); experiment: Transactivation of GAL4-tagged human PPARgamma LBD expressed in human HepG2 cells after 20 hrs by luciferase reporter gene assay; type: cell-based
T2 sequence (P37231 whole entry): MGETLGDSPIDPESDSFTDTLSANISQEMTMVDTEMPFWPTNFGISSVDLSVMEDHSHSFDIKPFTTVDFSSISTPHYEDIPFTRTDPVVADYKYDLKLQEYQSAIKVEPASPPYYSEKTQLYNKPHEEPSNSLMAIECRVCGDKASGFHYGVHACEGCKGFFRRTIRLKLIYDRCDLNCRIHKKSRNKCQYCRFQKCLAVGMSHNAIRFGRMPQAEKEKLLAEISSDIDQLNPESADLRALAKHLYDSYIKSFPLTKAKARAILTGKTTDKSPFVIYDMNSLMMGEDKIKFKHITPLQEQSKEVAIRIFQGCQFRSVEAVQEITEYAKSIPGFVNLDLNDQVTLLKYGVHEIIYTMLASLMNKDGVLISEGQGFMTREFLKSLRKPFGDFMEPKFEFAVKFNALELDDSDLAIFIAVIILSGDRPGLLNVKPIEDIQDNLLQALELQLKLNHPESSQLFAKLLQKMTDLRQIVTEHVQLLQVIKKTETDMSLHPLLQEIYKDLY

[3] = system: 3T3-L1; experiment: Induction of lipid accumulation in mouse 3T3L1 cells at 5 uM by Oil Red O staining-based assay; type: functional, cell-based
[4] = system: 3T3-L1; experiment: Induction of lipid accumulation in mouse 3T3L1 cells at 2 uM by Oil Red O staining-based assay; type: functional, cell-based
[5] = target: T3, Peroxisome proliferator-activated receptor alpha (Homo sapiens) (UniProt Q07869); experiment: Transactivation of GAL4-tagged human PPARalpha LBD expressed in human HepG2 cells after 20 hrs by luciferase reporter gene assay relative to Wy-14,643; type: cell-based
T3 sequence (whole entry): T1 sequence (Q07869 whole entry)

[6] = target: T4, Peroxisome proliferator-activated receptor alpha (Mus musculus) (UniProt P23204); experiment: Agonist activity at PPARalpha in mouse Hepa1-6 cells assessed as increase in Acox1 RNA expression at 1 to 5 uM by qRT-PCR analysis; type: cell-based
T4 sequence (whole entry): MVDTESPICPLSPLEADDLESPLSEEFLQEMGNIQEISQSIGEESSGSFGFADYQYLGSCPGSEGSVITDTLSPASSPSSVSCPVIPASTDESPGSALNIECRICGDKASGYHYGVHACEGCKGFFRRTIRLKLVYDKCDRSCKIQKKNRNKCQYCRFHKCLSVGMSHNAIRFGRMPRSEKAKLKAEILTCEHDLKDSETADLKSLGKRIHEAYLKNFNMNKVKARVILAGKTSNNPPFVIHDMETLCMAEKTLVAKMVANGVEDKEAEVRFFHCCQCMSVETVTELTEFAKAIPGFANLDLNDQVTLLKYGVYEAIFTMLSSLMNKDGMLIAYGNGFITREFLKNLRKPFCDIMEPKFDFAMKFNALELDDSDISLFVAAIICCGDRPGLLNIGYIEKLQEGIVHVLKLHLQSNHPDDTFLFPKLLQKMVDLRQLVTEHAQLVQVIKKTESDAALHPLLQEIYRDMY

[7] = system: 3T3-L1; experiment: Induction of cells lipid accumulation in mouse 3T3L1 cells at 10 uM by Oil Red O staining-based assay; type: functional, cell-based
[8] = target: T5, Peroxisome proliferator-activated receptor gamma (Homo sapiens) (UniProt P37231); experiment: Agonist activity at human PPARgamma LBD assessed as induction of recruitment of biotin-labeled PGC1alpha (130 to 154 residues) co-activator at >1 uM after 1 hr by TR-FRET assay
T5 sequence (whole entry): T2 sequence (P37231 whole entry)

[9] = target: T6, Peroxisome proliferator-activated receptor gamma (Mus musculus) (UniProt P37238); experiment: Agonist activity at PPARgamma in mouse 3T3-L1 cells assessed as increase in adipoq RNA expression at 0.1 to 2.5 uM by qRT-PCR analysis; type: cell-based
T6 sequence (whole entry): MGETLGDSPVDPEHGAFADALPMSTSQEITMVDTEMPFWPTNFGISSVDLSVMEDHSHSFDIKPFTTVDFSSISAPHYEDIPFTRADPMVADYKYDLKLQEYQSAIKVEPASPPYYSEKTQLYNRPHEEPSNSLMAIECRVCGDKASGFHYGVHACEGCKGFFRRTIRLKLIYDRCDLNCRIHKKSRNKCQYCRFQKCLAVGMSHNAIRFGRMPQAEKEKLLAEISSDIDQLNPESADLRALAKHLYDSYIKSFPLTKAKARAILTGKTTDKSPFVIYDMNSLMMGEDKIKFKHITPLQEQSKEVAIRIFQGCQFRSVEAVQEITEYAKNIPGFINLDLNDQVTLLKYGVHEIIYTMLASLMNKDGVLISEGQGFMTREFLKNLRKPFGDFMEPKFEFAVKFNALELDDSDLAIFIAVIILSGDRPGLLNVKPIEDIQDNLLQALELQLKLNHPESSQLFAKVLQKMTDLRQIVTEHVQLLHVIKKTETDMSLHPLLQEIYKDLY

[10] = target: T6, Peroxisome proliferator-activated receptor gamma (Mus musculus); experiment: Agonist activity at PPARgamma in mouse 3T3-L1 cells assessed as increase in fabp4 RNA expression at 0.1 to 2.5 uM by qRT-PCR analysis; type: cell-based
[11] = target: T5, Peroxisome proliferator-activated receptor gamma (Homo sapiens); experiment: Binding affinity wild type apo form of PPARgamma (unknown origin) assessed as inhibition of CDK5/p35-mediated PPARgamma phosphorylation at ser273 at 0.1 to 10 uM after 3.5 hrs by ELISA relative to rosiglitazone
[12] = target: T6, Peroxisome proliferator-activated receptor gamma (Mus musculus); experiment: Agonist activity at PPARgamma in mouse 3T3-L1 cells assessed as increase in glut4 RNA expression at 0.1 to 2.5 uM by qRT-PCR analysis; type: cell-based
[13] = target: T2, Peroxisome proliferator-activated receptor gamma; experiment: Synergistic agonist activity at human PPARgamma LBD assessed as biotin-labeled PGC1alpha (130 to 154 residues) co-activator recruitment after 1 hr in presence of 1 uM rosiglitazone by TR-FRET assay
[14] = target: T4, Peroxisome proliferator-activated receptor alpha (Mus musculus); experiment: Agonist activity at PPARalpha in mouse Hepa1-6 cells assessed as increase in cpt1a RNA expression at 1 to 5 uM by qRT-PCR analysis; type: cell-based
[15] = target: T2, Peroxisome proliferator-activated receptor gamma; experiment: Synergistic agonist activity at human PPARgamma LBD assessed as biotin-labeled PGC1alpha (130 to 154 residues) co-activator recruitment after 1 hr in presence of 10 uM rosiglitazone by TR-FRET assay
[16] = target: T6, Peroxisome proliferator-activated receptor gamma (Mus musculus); experiment: Agonist activity at PPARgamma in mouse 3T3-L1 cells assessed as increase in CD36 RNA expression at 0.1 to 2.5 uM by qRT-PCR analysis; type: cell-based
[17] = target: T5, Peroxisome proliferator-activated receptor gamma (Homo sapiens); experiment: Transactivation of GAL4-tagged human PPARgamma LBD expressed in human HepG2 cells at 10^-9 to 10^-5 M after 20 hrs in presence of 5 uM PPARgamma antagonist GW9662 by luciferase reporter gene assay; type: cell-based
[18] = target: T4, Peroxisome proliferator-activated receptor alpha (Mus musculus); experiment: Agonist activity at PPARalpha in mouse Hepa1-6 cells assessed as increase in acadm RNA expression at 1 to 5 uM by qRT-PCR analysis; type: cell-based
[19] = system: 3T3-L1; experiment: Induction of lipid accumulation in mouse 3T3L1 cells at 0.1 to 2.5 uM by Oil Red O staining-based assay; type: functional, cell-based
[20] = target: T6, Peroxisome proliferator-activated receptor gamma (Mus musculus); experiment: Agonist activity at PPARgamma in mouse 3T3-L1 cells assessed as increase in Suclg1 RNA expression at 0.1 to 2.5 uM by qRT-PCR analysis; type: cell-based
[21] = target: T6, Peroxisome proliferator-activated receptor gamma (Mus musculus); experiment: Agonist activity at PPARgamma in mouse 3T3-L1 cells assessed as increase in pck1 RNA expression at 5 to 10 uM by qRT-PCR analysis; type: cell-based
[22] = target: T2, Peroxisome proliferator-activated receptor gamma; experiment: Synergistic agonist activity at human PPARgamma LBD assessed as biotin-labeled PGC1alpha (130 to 154 residues) co-activator recruitment after 1 hr in presence of 0.37 uM rosiglitazone by TR-FRET assay
[23] = target: T6, Peroxisome proliferator-activated receptor gamma (Mus musculus); experiment: Synergistic agonist activity at PPARgamma in mouse 3T3-L1 cells accessed as increase in 2-deoxy-D-glucose uptake at 10 uM in presence of 0.3 uM rosiglitazone dosed 17 hrs prior to insulin stimulation
[24] = target: T6, Peroxisome proliferator-activated receptor gamma (Mus musculus); experiment: Agonist activity at PPARgamma in mouse 3T3-L1 cells assessed as increase in Gk RNA expression at 0.1 to 2.5 uM by qRT-PCR analysis; type: cell-based
[25] = target: T6, Peroxisome proliferator-activated receptor gamma (Mus musculus); experiment: Agonist activity at PPARgamma in mouse 3T3-L1 cells assessed as increase in pck1 RNA expression at 0.1 to 2.5 uM by qRT-PCR analysis; type: cell-based
[26] = target: T6, Peroxisome proliferator-activated receptor gamma (Mus musculus); experiment: Agonist activity at PPARgamma in mouse 3T3-L1 cells assessed as increase in Idh3a RNA expression at 0.1 to 2.5 uM by qRT-PCR analysis; type: cell-based
[27] = target: T6, Peroxisome proliferator-activated receptor gamma (Mus musculus); experiment: Agonist activity at PPARgamma in mouse 3T3-L1 cells assessed as increase in fabp4 RNA expression at 5 to 10 uM by qRT-PCR analysis; type: cell-based
[28] = target: T6, Peroxisome proliferator-activated receptor gamma (Mus musculus); experiment: Agonist activity at PPARgamma in mouse 3T3-L1 cells assessed as increase in adipoq RNA expression at 5 to 10 uM by qRT-PCR analysis; type: cell-based
[29] = target: T6, Peroxisome proliferator-activated receptor gamma (Mus musculus); experiment: Agonist activity at PPARgamma in mouse 3T3-L1 cells assessed as increase in glut4 RNA expression at 5 to 10 uM by qRT-PCR analysis; type: cell-based
[30] = target: T6, Peroxisome proliferator-activated receptor gamma (Mus musculus); experiment: Agonist activity at PPARgamma in mouse 3T3-L1 cells accessed as increase in 2-deoxy-D-glucose uptake at 10 uM treated 17 hrs prior to insulin stimulation; type: cell-based

SMILES: O=C(O)[C@H](Cc1ccc(-c2ccc(O[C@H](Cc3ccccc3)C(=O)O)cc2)cc1)Oc1ccc(-c2ccccc2)cc1
EC50 ([1]; read-out: EC50): 27 µM | EC50 [2]: 18 µM

SMILES: CN(CCOc1ccc(CC2SC(=O)NC2=O)cc1)c1ccccn1 (stereo unspecified)
Activity [3]: Active | Activity [4]: Active

SMILES: O=C(O)[C@@H](Cc1ccc(-c2ccccc2)cc1)Oc1ccc(-c2ccccc2)cc1
EC50 ([1]; read-out: EC50): 2.6 µM | Emax [5]: 25% | EC50 [2]: 0.89 µM

SMILES: O=C(O)[C@@H](Cc1ccc(-c2ccc(O[C@H](Cc3ccccc3)C(=O)O)cc2)cc1)Oc1ccc(-c2ccccc2)cc1
EC50 ([1]; hepg2): Not Active | EC50 [2]: 15 µM

Further compounds by falling EC50 [2], results first:

EC50 ([1]; read-out: EC50): 9.5 µM | EC50 [2]: 25 µM
SMILES: O=C(O)[C@H](Cc1ccccc1)Oc1ccc(-c2ccc(C[C@@H](Oc3ccc(-c4ccccc4)cc3)C(=O)O)cc2)cc1

EC50 ([1]; read-out: EC50): 5.9 µM | EC50 [2]: 9.8 µM
SMILES: O=C(O)[C@H](Cc1ccc(-c2ccc(O[C@@H](Cc3ccccc3)C(=O)O)cc2)cc1)Oc1ccc(-c2ccccc2)cc1

Activity [6]: Active | Activity [8]: Active | Activity [9]: inactive | Activity [10]: inactive | Activity [11]: Active | Activity [12]: inactive | EC50 ([1]; read-out: EC50): 1.05 µM | EC50 [13]: 2.85 µM | Emax [5]: 68% | Activity [14]: Active | EC50 [15]: 9.78 µM | Activity [16]: inactive | Activity [17]: Active | Activity [18]: Active | EC50 [2]: 0.12 µM | Activity [20]: inactive | Activity [21]: inactive | EC50 [22]: 3.69 µM | Activity [23]: Active | Activity [24]: inactive | Activity [25]: inactive | Activity [26]: inactive | Activity [27]: inactive | Activity [28]: inactive | Activity [29]: inactive | Activity [30]: Active
SMILES: O=C(O)[C@H](Cc1ccc(-c2ccccc2)cc1)Oc1ccc(-c2ccccc2)cc1
Activity [7]: inactive | Activity [19]: inactive
